The values below are quoted from earlier work in PMC2804221 (The Journal of Biological Chemistry, 2009).

pIC50: −log10 of the molar value.

The subject of data set [1] is GLP-1R.
The subject of data set [2] is isolated ECD of GLP-1R.

One may read the pIC50 as the IC50 on a negative log10 scale, so that one unit is a factor of ten. With “Exendin-4(9–39): truncated form of exendin-4, and a competitive antagonist”, in data set [1], the “mode of action at GLP-1R” value was “competitive antagonist”. Also, the negative logarithm of the IC50 (pIC50) in data set [2] was 8.22.
